Results taken from patent publication US11033640B2, “Enteric CT contrast material based on low-z atoms” (priority 2013, dated 2021).

Test system: rabbit

In the case of `[Mg+2].[OH-].[OH-]` [Mg(OH)2, magnesium hydroxide], the Toxicity or discomfort (rabbit model, high-concentration suspension diluted to 400 HU) was “without observing obvious toxicity or discomfort” and the “Differentiation from iodinated intravascular contrast, two-material decomposition” value (rabbit, dual energy CT) was “without interfering signal from the intravascular iodinated contrast material”.
